Measured values: patent US5162322A, “Method of treating anxiety with 5-[(4-aryl or heteroaryl-1-piperazinyl]alkyl)-2-oxazolidinones” (A. H. Robbins Company, Incorporated, priority 1991, dated 1992)
Where a name gives a salt, the structure may show the parent alone. Read-outs that look alike come from different tables or passages of the source.

How the values were obtained:
[1] = molecular target: T1, 5HT1A receptors (Canis lupus familiaris, UniProt Q6XXX9); experiment: biochemical; assay type: binding, dog
T1 sequence (Q6XXX9 1-423): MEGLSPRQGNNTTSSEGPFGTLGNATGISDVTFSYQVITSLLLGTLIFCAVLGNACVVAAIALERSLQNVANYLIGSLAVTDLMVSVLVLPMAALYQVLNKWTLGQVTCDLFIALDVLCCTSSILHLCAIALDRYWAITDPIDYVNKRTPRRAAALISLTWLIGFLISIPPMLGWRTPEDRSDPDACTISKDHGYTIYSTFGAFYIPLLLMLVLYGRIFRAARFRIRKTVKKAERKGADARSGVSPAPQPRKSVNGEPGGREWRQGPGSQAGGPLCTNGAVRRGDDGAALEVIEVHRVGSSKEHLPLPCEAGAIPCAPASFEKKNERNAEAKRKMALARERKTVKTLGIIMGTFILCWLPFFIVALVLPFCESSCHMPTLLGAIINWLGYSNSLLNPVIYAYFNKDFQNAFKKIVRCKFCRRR
Protocol: (§1) Anxiolytic properties were determined using an in vitro assay in which competive binding with the 5-HT1A specific agonist, [^3 H]8-hydroxy-2-(di-n-propylamino)tetralin(8-OH-DPAT) to 5HT1A receptors in the dog hippocampus membrane preparation is measured [Hall et al, J. Neurochem. […] Several compounds were also tested in mice is the exploratory light/dark method as described by Young and Johnson, Soc. […] 1988, 14, 207 in which the exploratory behavior of a mouse is a two-compartment light-dark activity box is monitored electrically and behavioral variables such as time spent in the lit versus dark compartments, rearings in either of the two compartments, number of transitions between the two compartments and other exploratory behavioral variables are recorded.

[2] = tested on: mice; experiment: exploratory light/dark method in mice (two-compartment light-dark activity box); assay type: in vivo; conditions: for minimal effective dose: Mus musculus, read-out: Light/Dark: minimum effective dose; for Light/Dark: % time spent in lit area: at minimum effective dose
Protocol: as §1

[3] = competitive binding vs [^3 H]8-OH-DPAT, dog hippocampus membrane, buspirone value is an average, read-out: 5HT1A IC50

| Compound | IC50 [1, 3] | other results |
| --- | --- | --- |
| O=C1CC2(CCCC2)CC(=O)N1CCCCN1CCN(c2ncccn2)CC1 [Buspirone, buspirone, reference compound] |  | IC50 [1]: 13.2 nM; minimal effective dose ([2]; ip): 5.62 mg/kg; minimal effective dose ([2]; po): 5.62 mg/kg; Light/Dark: % time spent in lit area ([2]; mice, IP): 51%; Light/Dark: % time spent in lit area ([2]; mice, PO): 54% |
| CN1CC(CCCCN2CCN(c3ccccc3)CC2)OC1=O (stereo not drawn) [Example 1, 3-Methyl-5-[4-(4-phenyl-1-piperazinyl)butyl]-2-oxazolidinone] | 59 nM | minimal effective dose ([2]; mice, IP): 10 mg/kg; Light/Dark: % time spent in lit area ([2]; mice, IP): 56% |
| CN1CC(CCCCN2CCN(c3ccccn3)CC2)OC1=O (stereo not drawn) [Example 2, 3-Methyl-5-[4-[4-(2-pyridinyl)-1-piperazinyl]butyl]-2-oxazolidinone] | 61 nM | minimal effective dose ([2]; mice, IP): 3.16 mg/kg; Light/Dark: % time spent in lit area ([2]; mice, IP): 53% |
| COc1ccccc1N1CCN(CCCCC2CN(C)C(=O)O2)CC1.Cl.Cl (stereo not drawn) [Example 3, 5-[4-[4-(2-Methoxyphenyl)-1-piperazinyl]butyl]-3-methyl-2-oxazolidinone dihydrochloride] | 15 nM | minimal effective dose ([2]; mice, IP): 3.16 mg/kg; Light/Dark: % time spent in lit area ([2]; mice, IP): 53% |
| CN1CC(CCCCN2CCN(c3ncccn3)CC2)OC1=O (stereo not drawn) [Example 4, 3-Methyl-5-[4-[4-(2-pyrimidinyl)-1-piperazinyl]butyl]-2-oxazolidinone] | 190 nM |  |
| COc1ccccc1N1CCN(CCCC2CN(C)C(=O)O2)CC1 (stereo not drawn) [Example 5, 5-[3-[4-(2-Methoxyphenyl)-1-piperazinyl]propyl]-3-methyl-2-oxazolidinone hydrochloride hydrate (2:2:3)] | 29 nM |  |
| CN1CC(CCCN2CCN(c3ccccn3)CC2)OC1=O (stereo not drawn) [Example 6, 3-Methyl-5-[3-[4-(2-pyridinyl)-1-piperazinyl]propyl]-2-oxazolidinone hydrochloride hydrate (2:4:1)] | 110 nM |  |
| CN1CC(CCCN2CCN(c3ncccn3)CC2)OC1=O (stereo not drawn) [Example 7, 3-Methyl-5-[3-[4-(2-pyrimidinyl)-1-piperazinyl]propyl]-2-oxazolidinone] | 510 nM |  |
| CCOc1ccccc1N1CCN(CCCC2CN(C)C(=O)O2)CC1 (stereo not drawn) [Example 8, 5-[3-[4-(2-Ethoxyphenyl)-1-piperazinyl]propyl]-3-methyl-2-oxazolidinone] | 22 nM |  |
| CCOc1ccccc1N1CCN(CCCCC2CN(C)C(=O)O2)CC1 (stereo not drawn) [Example 9, 5-[4-[4-(2-Ethoxyphenyl)-1-piperazinyl]butyl]-3-methyl-2-oxazolidinone dihydrochloride] | 16 nM |  |
| CN1CC(CCCN2CCN(c3ccccc3O)CC2)OC1=O (stereo not drawn) [Example 10, 5-[3-[4-(2-hydroxyphenyl)-1-piperazinyl]propyl]-3-methyl-2-oxazolidinone] | 110 nM |  |
| CN1CC(CCCCN2CCN(c3ccccc3O)CC2)OC1=O (stereo not drawn) [Example 11, 5-[4-[4-(2-Hydroxyphenyl)-1-piperazinyl]butyl]-3-methyl-2-oxazolidinone] | 40 nM |  |

Further lines, with some results ahead:

| IC50 [1, 3] | Compound | other results |
| --- | --- | --- |
| 20 nM | C=CCOc1ccccc1N1CCN(CCCCC2CN(C)C(=O)O2)CC1 (stereo not drawn) [Example 12, 8-methyl-5-[4-[4-[2(2-propenyloxy)phenyl]-1-piperazinyl]butyl]-2-oxazolidinone hydrochloride hydrate (2:4:1)] | minimal effective dose ([2]; mice, IP): 1 mg/kg; Light/Dark: % time spent in lit area ([2]; mice, IP): 66% |
| 2.2 nM | COc1ccccc1N1CCN(CCCCC2CN(c3ccccc3)C(=O)O2)CC1 (stereo not drawn) [Example 13, 5-[4-[4-(2-Methoxyphenyl)-1-piperazinyl]butyl]-3-phenyl-2-oxazolidinone hydrochloride hydrate (2:2:1)] |  |
| 7.7 nM | O=C1OC(CCCCN2CCN(c3ccccn3)CC2)CN1c1ccccc1 (stereo not drawn) [Example 14, 3-Phenyl-5-[4-[4-(2-pyridinyl)-1-piperazinyl]butyl]-2-oxazolidinone] |  |
| 29 nM | O=C1OC(CCCCN2CCN(c3ncccn3)CC2)CN1c1ccccc1 (stereo not drawn) [Example 15, 3-Phenyl-5-[4-[4-(2-pyrimidinyl)-1-piperazinyl]butyl]-2-oxazolidinone] |  |
| 8.2 nM | O=C1OC(CCCCN2CCN(c3ccccc3)CC2)CN1c1ccccc1 (stereo not drawn) [Example 16, 3-Phenyl-5-[4-(4-phenyl-1-piperazinyl)butyl]-2-oxazolidinone] |  |
| 15 nM | O=C1OC(CCCCN2CCN(c3ccccc3O)CC2)CN1c1ccccc1 (stereo not drawn) [Example 17, 5-[4-[4-(2-hydroxyphenyl)-1-piperazinyl]butyl]-3-phenyl-2-oxazolidinone] |  |
| 2 nM | CCOc1ccccc1N1CCN(CCCCC2CN(c3ccccc3)C(=O)O2)CC1 (stereo not drawn) [Example 18, 5-[4-[4-(2-Ethoxyphenyl)-1-piperazinyl]butyl]-3-phenyl-2-oxazolidinone hydrochloride hydrate (2:4:1)] |  |
| 57 nM | O=C1OC(CCCN2CCN(c3ccccn3)CC2)CN1c1ccccc1 (stereo not drawn) [Example 19, 3-Phenyl-5-[3-[4-(2-pyridinyl)-1-piperazinyl]propyl]-2-oxazolidinone] |  |
| 170 nM | O=C1OC(CCCN2CCN(c3ncccn3)CC2)CN1c1ccccc1 (stereo not drawn) [Example 20, 3-Phenyl-5-[3-[4-(2-pyrimidinyl)-1-piperazinyl]propyl]2-oxazolidinone] |  |
| 18 nM | CCOc1ccccc1N1CCN(CCCC2CN(c3ccccc3)C(=O)O2)CC1 (stereo not drawn) [Example 21, 5-[3-[4-(2-Ethoxyphenyl)-1-piperazinyl]propyl]-3-phenyl-2-oxazolidinone hydrochloride hydrate (2:4:1)] |  |
| 50 nM | O=C1OC(CCCN2CCN(c3ccccc3)CC2)CN1c1ccccc1 (stereo not drawn) [Example 22] |  |
| 11 nM | COc1ccccc1N1CCN(CCCC2CN(c3ccccc3)C(=O)O2)CC1 (stereo not drawn) [Example 23, 5-[3-[4-(2-Methoxyphenyl)-1-piperazinyl]propyl]-3-phenyl-2-oxazolidinone hydrochloride hydrate (1:2)] |  |
